Values quoted from earlier work, collected in PMC6982354, “Promising New Inhibitors of Tyrosyl-DNA Phosphodiesterase I (Tdp 1) Combining 4-Arylcoumarin and Monoterpenoid Moieties as Components of Complex Antitumor Therapy” (International Journal of Molecular Sciences, 2019).

Assays:
Tdp1 = target: T1, Tdp1 (Homo sapiens, UniProt Q9NUW8); design: method as in PMID 27658793; conditions: Tdp1 inhibition, Figure 1; cited from earlier work
T1 construct: made in house

human cancer cells = test system: human cancer cells; design: method as in PMID 27658793; conditions: compound in non-toxic doses; cited from earlier work

T1 sequence (Q9NUW8 whole entry): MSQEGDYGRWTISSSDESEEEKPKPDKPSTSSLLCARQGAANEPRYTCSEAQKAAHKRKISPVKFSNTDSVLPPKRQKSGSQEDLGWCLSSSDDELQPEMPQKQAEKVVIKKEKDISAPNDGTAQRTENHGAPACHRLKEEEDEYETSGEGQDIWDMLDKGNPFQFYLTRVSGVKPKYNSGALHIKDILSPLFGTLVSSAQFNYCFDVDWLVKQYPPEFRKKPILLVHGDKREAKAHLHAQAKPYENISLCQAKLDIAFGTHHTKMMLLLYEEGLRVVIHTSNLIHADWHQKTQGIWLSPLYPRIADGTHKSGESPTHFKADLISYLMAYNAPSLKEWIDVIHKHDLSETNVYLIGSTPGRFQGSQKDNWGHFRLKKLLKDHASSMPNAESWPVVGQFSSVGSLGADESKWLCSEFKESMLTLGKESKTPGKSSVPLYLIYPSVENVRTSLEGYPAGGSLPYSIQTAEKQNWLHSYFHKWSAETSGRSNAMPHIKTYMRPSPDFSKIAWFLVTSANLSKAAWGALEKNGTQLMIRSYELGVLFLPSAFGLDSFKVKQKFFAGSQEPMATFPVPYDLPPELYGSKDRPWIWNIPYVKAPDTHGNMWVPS

**Q.** For `COc1cccc(COc2ccc3c4c(c(=O)oc3c2)CCCC4)c1` [compound 1], which IC50 (Tdp1) is on record?
**A.** 5 µM

**Q.** For `CC1(C)C2CC=C(COc3ccc4c5c(c(=O)oc4c3)CCC5)C1C2` (centres unmarked) [compound 2], which “effect on the cytotoxic activity of CPT” value (human cancer cells) is on record?
**A.** significantly increased
